Consider one compound from US6884798B2, “Fungicidal agent combinations” (Bayer CropScience AG, priority 2000, dated 2005).

This assay has as its system Sphaerotheca pannosa. In words: Sphaerotheca test roses/curative. In kind it is in vivo, Sphaerotheca pannosa on roses. The note with it: infected roses sprayed three times at 7-day intervals; application rate 100 g/ha. The method, then:
To produce a suitable preparation of active compound, a commercial formulation of active compound or active compound combination is mixed with water until the desired concentration is reached.
To test for curative activity, roses infected with Sphaerotheca pannosa are sprayed three times, at intervals of in each case 7 days, with the preparation of active compound at the stated application rate. The plants are placed in a greenhouse at temperatures between 15° C. and 23° C. and a relative atmospheric humidity of about 70%.
Evaluation is carried out 10 or 20 days after the third treatment. 0% means an efficacy which corresponds to that of the control, whereas an efficacy of 100% means that no infection is observed.

With `CC(C)(C)C(O)(CCc1ccc(Cl)cc1)Cn1cncn1` (centres unmarked) [tebuconazoles, tebuconazole], the “Efficacy in % 10 days after the third treatment” value turned out to be 28.6% and the “Efficacy in % 20 days after the third treatment” value worked out at 26.6%.
